Measurements: US11566007B2, “Ras inhibitors” (Revolution Medicines, Inc., priority 2019, dated 2023)

Tests used:
NRAS Q61K = NRAS Q61K (Homo sapiens (Human), UniProt P01111+P62937, Q61K); assay: Ras-Raf (BRAF RBD) disruption / FRET / MOA assay, NRAS Q61K; assay type: biochemical; conditions: NRAS Q61K; Ras-Raf disruption/FRET/MOA assay; read-out: IC50* NRAS Q61K FRET data
In short: (§1)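 TR-FRET disruption of nucleotide-loaded Ras binding to BRAF RBD via compound-driven ternary complex with cyclophilin A. Compound as 10-point 3-fold series from 30 μM final, 3 h at 25° C, then anti-His Eu-W1024 (10 nM) and anti-GST allophycocyanin (50 nM) for 1.5 h. IC50 from decreased FRET ratio versus DMSO.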

KRAS Q61H = KRAS Q61H (Homo sapiens (Human), UniProt P01116+P62937, Q61H); assay: Ras-Raf (BRAF RBD) disruption / FRET / MOA assay, KRAS Q61H; assay type: biochemical; conditions: Ras-Raf disruption/FRET/MOA assay; class symbols; read-out: KRAS Q61H FRET data IC50
Sequence of KRAS Q61H (P01116-2 other isoform, or with tags, fused parts or gaps Q61H): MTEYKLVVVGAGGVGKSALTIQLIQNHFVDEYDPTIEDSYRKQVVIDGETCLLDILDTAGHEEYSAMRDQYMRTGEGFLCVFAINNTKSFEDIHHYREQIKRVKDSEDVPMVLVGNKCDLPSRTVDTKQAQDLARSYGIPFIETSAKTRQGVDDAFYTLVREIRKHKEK
Sequence of KRAS Q61H (P62937 whole entry): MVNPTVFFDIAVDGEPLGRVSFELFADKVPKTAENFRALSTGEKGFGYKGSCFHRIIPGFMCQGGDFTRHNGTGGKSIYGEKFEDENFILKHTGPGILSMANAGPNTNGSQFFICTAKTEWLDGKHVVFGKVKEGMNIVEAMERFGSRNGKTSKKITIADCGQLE
In short: as §1

[1] = tested on: NCI-H358 cells (K-Ras G12C); assay: Potency assay: pERK in NCI-H358 cells; assay type: cell-based, human; conditions: Homo sapiens, NCI-H358; H358 KRAS G12C; read-out: pERK EC50
In short: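 pERK decrease read by AlphaLISA SureFire p-ERK1/2 or In-Cell Western after 4 h compound exposure at 37 °C, 5% CO2.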

NRAS G12C = NRAS G12C (Homo sapiens (Human), UniProt P01111+P62937, G12C); assay: Ras-Raf (BRAF RBD) disruption / FRET / MOA assay, NRAS G12C; assay type: biochemical; conditions: read-out: IC50* NRAS G12C FRET data
Sequence of NRAS G12C (P01111 whole entry G12C): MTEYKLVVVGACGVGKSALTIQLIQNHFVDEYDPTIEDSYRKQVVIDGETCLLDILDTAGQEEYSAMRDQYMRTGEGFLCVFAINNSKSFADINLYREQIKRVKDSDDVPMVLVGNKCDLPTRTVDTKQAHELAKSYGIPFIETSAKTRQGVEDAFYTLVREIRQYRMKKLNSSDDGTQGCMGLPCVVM
Sequence of NRAS G12C (P62937 whole entry): as the sequence (P62937 whole entry) above
In short: (§2)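 Compounds, top final concentration 30 μM in 10-point 3-fold series, incubated 3 hours at 25° C with nucleotide-loaded Ras, cyclophilin A and BRAF RBD.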

NRAS Q61R = NRAS Q61R (Homo sapiens (Human), UniProt P01111+P62937, Q61R); assay: Ras-Raf (BRAF RBD) disruption / FRET / MOA assay, NRAS Q61R; assay type: biochemical; conditions: NRAS Q61R; Ras-Raf disruption/FRET/MOA assay; read-out: IC50* NRAS Q61R FRET data
Sequence of NRAS Q61R (P01111 whole entry Q61R): as the sequence (P01111 whole entry G12C) above, with C12G, Q61R counted along it
Sequence of NRAS Q61R (P62937 whole entry): as the sequence (P62937 whole entry) above
In short: as §1

KRAS G12D = KRAS G12D (Homo sapiens (Human), UniProt P01116+P62937, G12D); assay: Ras-Raf (BRAF RBD) disruption / FRET / MOA assay, KRAS G12D; assay type: biochemical; conditions: Ras-Raf disruption/FRET/MOA assay; class symbols; read-out: KRAS G12D FRET data IC50
Sequence of KRAS G12D (P01116-2 other isoform, or with tags, fused parts or gaps G12D): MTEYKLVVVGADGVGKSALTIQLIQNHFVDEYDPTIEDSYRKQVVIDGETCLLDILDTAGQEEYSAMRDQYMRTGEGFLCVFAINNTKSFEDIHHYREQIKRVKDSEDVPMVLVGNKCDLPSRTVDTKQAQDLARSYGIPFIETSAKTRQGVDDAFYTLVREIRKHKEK
Sequence of KRAS G12D (P62937 whole entry): as the sequence (P62937 whole entry) above
In short: as §2

Sequence of NRAS Q61K (P01111 whole entry Q61K): as the sequence (P01111 whole entry G12C) above, with C12G, Q61K counted along it
Sequence of NRAS Q61K (P62937 whole entry): as the sequence (P62937 whole entry) above

Row | Structure (SMILES) | IC50 (NRAS Q61K) [nM] | IC50 (KRAS Q61H) [nM] | EC50 [1] [nM] | IC50 (NRAS G12C) [nM] | IC50 (NRAS Q61R) [nM] | IC50 (KRAS G12D) [nM]
1 | C=CC(=O)N(C)CCN1CCN(C(=O)N(C)[C@H](C(=O)N[C@H]2Cc3cccc(c3)-c3ccc4c(c3)c(c(-c3cccnc3[C@H](C)OC)n4CC)CC(C)(C)COC(=O)[C@@H]3CCCN(N3)C2=O)C(C)C)C[C@@H]1C (atropisomer, axis not shown) [Example A570] | 100 to 1000 | 100 to 1000 | < 5000 | 100 to 1000 | 100 to 1000 | 1000 to 10000
2 | C=CC(=O)N1CC[C@H](C(=O)N(C)[C@H](C(=O)N[C@H]2Cc3cccc(c3)-c3ccc4c(c3)c(c(-c3cccnc3[C@H](C)OC)n4CC3COC3)CC(C)(C)COC(=O)[C@@H]3CCCN(N3)C2=O)C(C)C)C1 (atropisomer, axis not shown) [Example A481] | 1000 to 10000 | 1000 to 10000 | < 5000 | 100 to 1000 | 1000 to 10000 | > 10000
3 | C=CC(=O)N1CC[C@H](C(=O)N(C)[C@H](C(=O)N[C@H]2Cc3cc(O)cc(c3)-c3ccc4c(c3)c(c(-c3cncs3)n4CC)CC(C)(C)COC(=O)[C@@H]3CCCN(N3)C2=O)C(C)C)C1 [Example A143] | 1000 to 10000 | 1000 to 10000 | < 5000 | 100 to 1000 | > 10000 | > 10000
4 | C=CC(=O)N1CC2(CCN(C(=O)N(C)[C@H](C(=O)N[C@H]3Cc4cccc(c4)-c4ccc5c(c4)c(c(-c4cccnc4[C@H](C)OC)n5CC)CC(C)(C)COC(=O)[C@@H]4CCCN(N4)C3=O)C(C)C)CC2)C1 (atropisomer, axis not shown) [Example A680] | 100 to 1000 | 100 to 1000 | < 5000 | 100 to 1000 | 100 to 1000 | 1000 to 10000
5 | C=CC(=O)N1CC[C@H](C(=O)N(C)[C@H](C(=O)N[C@H]2Cc3cccc(c3)-c3ccc4c(c3)c(c(-c3cccnc3[C@H](C)OC)n4CC)CC(C)(C)COC(=O)[C@@H]3CCCN(N3)C2=O)C(C)C(F)(F)F)C1 (stereo partly drawn) [Example A641] | 1000 to 10000 | 1000 to 10000 | < 5000 | 100 to 1000 | 1000 to 10000 | > 10000
6 | CCn1c(-c2cccnc2[C@H](C)OC)c2c3cc(ccc31)-c1csc(n1)C[C@H](NC(=O)CCO[C@H]1CCN(C(=O)C#CC(C)(C)N3CCC3)C1)C(=O)N1CCC[C@H](N1)C(=O)OCC(C)(C)C2 (atropisomer, axis not shown) [Example A381] | 1000 to 10000 | 1000 to 10000 | < 5000 | 10 to 100 | 1000 to 10000 | 1000 to 10000
7 | CCn1c(-c2cccnc2[C@H](C)OC)c2c3cc(ccc31)-c1csc(n1)C[C@H](NC(=O)[C@H](C(C)C)N(C)C(=O)N(C)C1CN(C(=O)/C=C/[C@H]3CCCN3C)C1)C(=O)N1CCC[C@H](N1)C(=O)OCC(C)(C)C2 (atropisomer, axis not shown) [Example A729] | 100 to 1000 | 100 to 1000 | < 5000 | 100 to 1000 | 1000 to 10000 | 1000 to 10000
8 | C=CC(=O)N1CC[C@H](C(=O)N(C)[C@H](C(=O)N[C@H]2Cc3cccc(n3)-c3ccc4c(c3)c(c(-c3cccnc3[C@H](C)OC)n4CC)CC(C)(C)COC(=O)[C@@H]3CCCN(N3)C2=O)C(C)C)C1 (atropisomer, axis not shown) [Example A442] | 1000 to 10000 | 1000 to 10000 | < 5000 | 100 to 1000 | 1000 to 10000 | > 10000
9 | C=CC(=O)N1CC[C@H](C(=O)N(C)[C@H](C(=O)N[C@H]2Cc3cc(O)cc(c3)-c3ccc4c(c3)c(c(-c3cccc5c3COC5)n4CC)CC(C)(C)COC(=O)[C@@H]3CCCN(N3)C2=O)C(C)C)C1 [Example A227] | 1000 to 10000 | 1000 to 10000 | < 5000 | 100 to 1000 | > 10000 | > 10000
10 | CCn1c(-c2cccnc2[C@H](C)OC)c2c3cc(ccc31)-c1csc(n1)C[C@H](NC(=O)[C@H](C(C)C)N(C)C(=O)N1CCN(C(=O)/C=C/CN(C)C)C[C@@H]1C)C(=O)N1CCC[C@H](N1)C(=O)OCC(C)(C)C2 (atropisomer, axis not shown) [Example A709] | 10 to 100 | 10 to 100 | < 5000 | 10 to 100 | 100 to 1000 | 100 to 1000
11 | C=CC(=O)N1CC[C@H](C(=O)N(C)[C@H](C(=O)N[C@H]2Cc3cccc(c3)-c3ccc4c(c3)c(c(-c3cc(C5CN(C)C5)cnc3[C@H](C)OC)n4CC)CC(C)(C)COC(=O)[C@@H]3CCCN(N3)C2=O)C(C)C)C1 (atropisomer, axis not shown) [Example A392] | > 10000 | 1000 to 10000 | < 5000 | 100 to 1000 | 1000 to 10000 | > 10000
12 | C=CC(=O)N1CC[C@H](C(=O)N(C)[C@H](C(=O)N[C@H]2Cc3cc(O)cc(c3)-c3ccc4c(c3)c(c(-c3cnc(N(C)C)s3)n4CC)CC(C)(C)COC(=O)[C@@H]3CCCN(N3)C2=O)C(C)C)C1 [Example A302] | > 10000 | 1000 to 10000 | < 5000 | 100 to 1000 | > 10000 | > 10000
13 | C=CC(=O)N(C)[C@@H]1C[C@@H](C)N(C(=O)N(C)[C@H](C(=O)N[C@H]2Cc3nc(cs3)-c3ccc4c(c3)c(c(-c3cccnc3[C@H](C)OC)n4CC)CC(C)(C)COC(=O)[C@@H]3CCCN(N3)C2=O)C(C)C)C1 (atropisomer, axis not shown) [Example A634] | 100 to 1000 | 100 to 1000 | < 5000 | 10 to 100 | 100 to 1000 | 1000 to 10000
14 | CCn1c(-c2cccnc2[C@H](C)OC)c2c3cc(ccc31)N1CCO[C@@H](C[C@H](NC(=O)[C@H](C(C)C)N(C)C(=O)C3(F)CCN(C(=O)/C=C/CN(C)C)CC3)C(=O)N3CCC[C@H](N3)C(=O)OCC(C)(C)C2)C1 (atropisomer, axis not shown) [Example A645] | > 10000 | 1000 to 10000 | < 5000 | 10 to 100 | > 10000 | 1000 to 10000
15 | C=CC(=O)N(C)[C@H]1CN(C(=O)N(C)[C@H](C(=O)N[C@H]2Cc3nc(cs3)-c3ccc4c(c3)c(c(-c3cccnc3[C@H](C)OC)n4CC)CC(C)(C)COC(=O)[C@@H]3CCCN(N3)C2=O)C(C)C)C[C@@H]1F (atropisomer, axis not shown) [Example A632] | 100 to 1000 | 100 to 1000 | < 5000 | 10 to 100 | 100 to 1000 | 1000 to 10000
16 | C=CC(=O)N1CC[C@H](C(=O)N2CCCCC[C@H]2C(=O)N[C@H]2Cc3nc(cs3)-c3ccc4c(c3)c(c(-c3cccnc3[C@H](C)OC)n4CC)CC(C)(C)COC(=O)[C@@H]3CCCN(N3)C2=O)C1 (atropisomer, axis not shown) [Example A495] | 1000 to 10000 | 1000 to 10000 | < 5000 | 100 to 1000 | 1000 to 10000 | > 10000
17 | C=CC(=O)N1CC[C@@]2(C1)OCN([C@H](C(=O)N[C@H]1Cc3cccc(c3)-c3ccc4c(c3)c(c(-c3cccnc3[C@H](C)OC)n4CC)CC(C)(C)COC(=O)[C@@H]3CCCN(N3)C1=O)C(C)C)C2=O (atropisomer, axis not shown) [Example A358] | 1000 to 10000 | 100 to 1000 | < 5000 | 100 to 1000 | 1000 to 10000 | 1000 to 10000
18 | C=CS(=O)(=O)N1CCC(C(=O)N(C)[C@H](C(=O)N[C@H]2Cc3cccc(c3)-c3ccc4c(c3)c(c(-c3cncnc3)n4CC)CC(C)(C)COC(=O)[C@@H]3CCCN(N3)C2=O)C(C)C)C1 (single isomer, unassigned) [Example A171] | > 10000 | > 10000 | < 5000 | 1000 to 10000 | > 10000 | > 10000
19 | C=CC(=O)N1CC[C@H](C(=O)N(C)[C@H](C(=O)N[C@H]2Cc3csc(n3)-c3ccc4c(c3)c(c(-c3cccnc3[C@H](C)OC)n4CC)CC(C)(C)COC(=O)[C@@H]3CCCN(N3)C2=O)C(C)C)C1 (atropisomer, axis not shown) [Example A330] | 100 to 1000 | 100 to 1000 | < 5000 | 100 to 1000 | 1000 to 10000 | 1000 to 10000
20 | C=CC(=O)N(C)CCN1CCN(C(=O)N(C)[C@H](C(=O)N[C@H]2Cc3cccc(c3)-c3ccc4c(c3)c(c(-c3cccnc3[C@H](C)OC)n4CC)CC(C)(C)COC(=O)[C@@H]3CCCN(N3)C2=O)C(C)C)C[C@H]1C (atropisomer, axis not shown) [Example A553] | 1000 to 10000 | 100 to 1000 | < 5000 | 100 to 1000 | 1000 to 10000 | 1000 to 10000
